# Test results taken from US6737383B1, “Herbicidal oxadiazolidines” (priority 1999, dated 2004).
# Tests used:
# wild oat = experiment: Test B pre/postemergence wild oat; assay type: in vivo, Avena fatua
# How it was run: (§1)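 Herbicidal effect was estimated by eye on a ten-point control scale after plants spent twelve to sixteen days in a greenhouse following soil or foliar treatment. Foliar sprays targeted plants at one to four leaves; all doses were formulated in a non-phytotoxic solvent with surfactant.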
# surinam grass = experiment: Test B pre/postemergence surinam grass; assay type: in vivo, Brachiaria decumbens
# How it was run: as §1
# bedstraw = experiment: Test B pre/postemergence bedstraw; assay type: in vivo, Galium aparine
# How it was run: as §1
# bamyardgrass = experiment: Test B flood test barnyardgrass; assay type: in vivo, Echinochloa crus-galli
# How it was run: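 Read-out is a visual response score from 0 (no effect) to 10 (complete control), assigned by comparison with untreated controls. Treatment was applied at the 2-leaf stage, and plants stayed in the greenhouse for twelve to sixteen days before scoring.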
# [1] = Postemergence, Rate 250 g/ha, scale 0 to 10, 0 no effect, 10 complete control
# [2] = Postemergence, Rate 1000 g/ha, scale 0 to 10 (0 no effect, 10 complete control)
# [3] = Preemergence, Rate 125 g/ha, scale 0 to 10 (0 no effect, 10 complete control)
# [4] = Preemergence, Rate 250 g/ha, scale of 0 to 10 where 0 is no effect and 10 is complete control
# [5] = Preemergence, Rate 500 g/ha, scale 0 (no effect) to 10 (complete control)
# [6] = Rate 125 g/ha, Postemergence, scale 0 to 10, 0 no effect, 10 complete control
# [7] = Rate 1000 g/ha, Preemergence, scale 0 to 10 (0 no effect, 10 complete control)
# [8] = Rate 500 g/ha, Postemergence, 0 to 10 scale (0 no effect, 10 complete control)
# [9] = Rate 125 g/ha, Postemergence section (flood test species), scale 0 to 10, 0 no effect, 10 complete control
# [10] = Rate 500 g/ha, Postemergence section of Table B, 0 to 10 scale (0 no effect, 10 complete control)
# [11] = flood test, listed under Postemergence, Rate 250 g/ha, scale 0 to 10, 0 no effect, 10 complete control
# [12] = Postemergence, Rate 62 g/ha, scale 0 to 10, 0 is no effect, 10 is complete control
# [13] = Preemergence, Rate 62 g/ha, scale 0 to 10, 0 is no effect, 10 is complete control
Compound,Wild oats plant response rating (wild oat; [1]),"Plant response rating, Wild oats (wild oat; [3])","Plant response rating, Wild oats (wild oat; [4])",Wild oats plant response rating (wild oat; [5]),Wild oats plant response rating (wild oat; [6]),B. signalgrass plant response rating (surinam grass; [1]),"Plant response rating, B. signalgrass (surinam grass; [3])","Plant response rating, B. signalgrass (surinam grass; [4])",B. signalgrass plant response rating (surinam grass; [5]),B. signalgrass plant response rating (surinam grass; [6]),B. signalgrass plant response rating (surinam grass; [8]),Bedstraw plant response rating (bedstraw; [1]),"Plant response rating, Bedstraw (bedstraw; [3])","Plant response rating, Bedstraw (bedstraw; [4])",Bedstraw plant response rating (bedstraw; [5]),Bedstraw plant response rating (bedstraw; [6]),Bedstraw plant response rating (bedstraw; [8]),Barnyardgrass plant response rating (bamyardgrass; [9]),Barnyardgrass plant response rating (bamyardgrass; [10]),Barnyardgrass plant response rating (bamyardgrass; [11]),further results
CCN(CC)C(=O)n1oc(=O)n(-c2c(C)cccc2C)c1=O [Compound 2],0,0,0,0,0,0,0,0,0,0,0,0,0,0,0,0,0,0,0,0,"Wild oats plant response rating (wild oat; [2]): 0; Plant response rating, Wild oats (wild oat; [7]): 4; B. signalgrass plant response rating (surinam grass; [2]): 2; Plant response rating, B. signalgrass (surinam grass; [7]): 6; Bedstraw plant response rating (bedstraw; [2]): 0; Plant response rating, Bedstraw (bedstraw; [7]): 0; Barnyardgrass plant response rating (bamyardgrass; [2]): 0"
"CC(C)N(C(=O)n1oc(=O)n(-c2ccc(Cl)cc2Cl)c1=O)c1ccc(F)cc1 [Compound 7, 4-(2,4-Dichlorophenyl)-N-(4-fluorophenyl)-N-(1-methylethyl)-3,5-dioxo-1,2,4-oxadiazolidine-2-carboxamide]",0,0,0,0,0,0,0,0,0,0,3,0,0,0,0,0,0,0,0,0,"Wild oats plant response rating (wild oat; [2]): 3; Plant response rating, Wild oats (wild oat; [7]): 0; B. signalgrass plant response rating (surinam grass; [2]): 6; Plant response rating, B. signalgrass (surinam grass; [7]): 3; Bedstraw plant response rating (bedstraw; [2]): 4; Plant response rating, Bedstraw (bedstraw; [7]): 0; Barnyardgrass plant response rating (bamyardgrass; [2]): 0; Barnyardgrass plant response rating (bamyardgrass; Rate 250 g/ha, headed Pre-emergence (flood test species), scale 0 to 10 (0 no effect, 10 complete control)): 0; Plant response rating, Barnyardgrass (bamyardgrass; Rate 500 g/ha, headed Pre-emergence (flood test species), scale 0 to 10 (0 no effect, 10 complete control)): 0; Barnyardgrass plant response rating (bamyardgrass; Rate 1000 g/ha, Pre-emergence (as headed), scale 0 to 10): 0; Barnyardgrass plant response rating (bamyardgrass; Rate 2000 g/ha, Pre-emergence (as headed), scale 0 to 10, 0 no effect, 10 complete control): 0"
CCN(CC)C(=O)n1oc(=O)n(-c2cc(Cl)cc(Cl)c2)c1=O [Compound 11],0,0,0,0,0,0,0,0,0,0,0,0,0,0,0,0,0,0,0,0,"Wild oats plant response rating (wild oat; [12]): 0; B. signalgrass plant response rating (surinam grass; [12]): 0; Plant response rating, B. signalgrass (surinam grass; [13]): 0; Bedstraw plant response rating (bedstraw; [12]): 0; Plant response rating, Bedstraw (bedstraw; [13]): 0; Barnyardgrass plant response rating (bamyardgrass; [12]): 0"
CC(C)N(C(=O)n1oc(=O)n(-c2ccccc2C(F)(F)F)c1=O)c1ccc(F)cc1 [Compound 15],0,0,0,0,0,0,0,0,0,0,0,0,0,0,7,0,4,0,0,0,"Wild oats plant response rating (wild oat; [12]): 0; B. signalgrass plant response rating (surinam grass; [12]): 0; Plant response rating, B. signalgrass (surinam grass; [13]): 0; Bedstraw plant response rating (bedstraw; [12]): 0; Plant response rating, Bedstraw (bedstraw; [13]): 0; Barnyardgrass plant response rating (bamyardgrass; [12]): 0"
